Results reported in patent US8629147B2, “Heterocyclic compounds useful in the treatment of neoplastic diseases, inflammatory disorders and immunomodulatory disorders” (ChemBridge Corporation, priority 2005, dated 2014).

Key:
[1] = molecular target: T1, human IGF1R kinase domain (Homo sapiens, UniProt P08069); assay: IGF1R tyrosine phosphorylation inhibition, Alphascreen phosphotyrosine PT66 assay; format: biochemical; details: recombinant kinase domain, 1 hour co-incubation, 20 to 0.1 μM
T1 construct: human IGF1R precursor protein corresponding to the amino acids positions 974 through 1293; 6xHis; made in house; host or cells: SF9 insect cells, recombinant baculovirus (Bac-to-Bac System)
T1 sequence (P08069 974-1293): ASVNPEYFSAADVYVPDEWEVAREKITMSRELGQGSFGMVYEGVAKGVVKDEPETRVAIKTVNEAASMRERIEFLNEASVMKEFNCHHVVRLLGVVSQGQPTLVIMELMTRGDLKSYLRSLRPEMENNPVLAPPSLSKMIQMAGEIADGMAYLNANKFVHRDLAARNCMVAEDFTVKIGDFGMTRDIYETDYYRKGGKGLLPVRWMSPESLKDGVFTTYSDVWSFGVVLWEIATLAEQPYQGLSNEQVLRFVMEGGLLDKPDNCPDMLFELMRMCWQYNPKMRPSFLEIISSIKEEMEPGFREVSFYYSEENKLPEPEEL
Description: Inhibition of IGF1R tyrosine phosphorylation was measured in the Alphascreen phosphotyrosine PT66 assay kit (Perkin Elmer Life sciences, Catalog number 6760602) according to the manufacturer's instructions. As a source of enzymatically active IGF1r kinase for this assay, SF9 insect cells were infected with recombinant baculovirus (Bac-to-Bac System, Invitrogen, Carlsbad, Calif.) encoding 6×His-tagged kinase domain portion of human IGF1R precursor protein corresponding to the amino acids positions 974 through 1293 (Abbott et al., 1992, J. Biol. Chem. 267:10759-10763) and recombinant kinase protein was purified to homogeneity using two-step chromatography on immobilized Ni^2+ resin (Ni-NTA) and ion-exchange Q-Sepharose column. Biotinylated poly glu-tyr 4:1 (CIS bio-international, catalog number 61GT0BLA) was used for the kinase substrate. Compounds were serially diluted to give a concentration range from 20 to 0.1 μM and co-incubated with IGF1r kinase, biotinylated peptide substrate and alphascreen components for 1 hour and then read in a Perkin-Elmer alphafusion plate reader. A plot of counts per minute versus log concentration of compounds was fitted to a sigmoidal dose response curve using Graphpad Prism software to generate IC50 values (see FIG. 1 for an example).

[2] = test system: MCF7 human breast tumor cells; assay: CellTiter-Glo luminescent cell viability assay, MCF7; format: cell-based; details: 48 hours, 20 to 0.1 μM
Description: (§1) Cell viability of either MCF7 human breast tumor cells (American Type Culture Collection catalog #HTB 22) or NCI-H929 human plasmacytoma cells (ATCC catalog #CRL-9068) was assessed using the Promega CellTiter-Glo luminescent cell viability assay according to manufacturer's instructions. In brief, cells were plated at 10,000 cells per well in a clear bottom white 96 well microtiter plate (Costar catalog #3604) in 100 μL of cell growth medium. Compounds were then added to the cells to give final concentrations of compound ranging from 20 to 0.1 μM. Cells were incubated 48 hours after which 100 μL per well of celltiter-glo reagent was added and luminescence was measured in a BMG polarstar plate luminometer. A plot of counts per minute versus log concentration of compounds was fitted to a sigmoidal dose response curve using Graphpad Prism software to generate IC50 values.

[3] = test system: NCI-H929 human plasmacytoma cells; assay: CellTiter-Glo luminescent cell viability assay, NCI-H929; format: cell-based; details: 48 hours, 20 to 0.1 μM
Description: as §1

[4] = molecular target: T2, recombinant TrkA kinase domain (Homo sapiens, UniProt P04629); assay: TrkA tyrosine kinase activity inhibition, Alphascreen phosphotyrosine PT66 assay; format: biochemical; details: compounds 10 to 0.005 μM, 1 hour incubation
T2 construct: commercial preparation of recombinant TrkA kinase domain; purchased Upstate Cell Signaling 14-571
T2 sequence (P04629 510-781 limits assumed): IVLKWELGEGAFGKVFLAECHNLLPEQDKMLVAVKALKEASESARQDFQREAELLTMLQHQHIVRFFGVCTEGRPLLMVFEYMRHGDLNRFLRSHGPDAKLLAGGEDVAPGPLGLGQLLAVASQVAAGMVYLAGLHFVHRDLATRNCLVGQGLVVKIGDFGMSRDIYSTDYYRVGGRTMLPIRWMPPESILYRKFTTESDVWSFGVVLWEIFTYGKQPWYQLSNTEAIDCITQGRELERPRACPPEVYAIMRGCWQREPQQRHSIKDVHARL
Description: Inhibition of TrkA tyrosine kinase activity was measured using the Alphascreen phosphotyrosine PT66 assay kit (Perkin Elmer Life Sciences, Catalog Number 6760602) according to the manufacturer's instructions. As a source of enzymatically active TrkA kinase for this assay, the commercial preparation of recombinant TrkA kinase domain (Upstate Cell Signaling, Catalog Number 14-571) was used. Biotinylated poly Glu-Tyr 4:1 (CIS bio-international, catalog number 61GT0BLA) was used for the kinase substrate. Compounds were serially diluted to give a concentration range from 10 to 0.005 μM and co-incubated with TrkA kinase, biotinylated peptide substrate and Alphascreen kit components for 1 hour and then read in a Perkin-Elmer Alpha Fusion plate reader. A plot of counts per minute versus log concentration of compounds was fitted to a sigmoidal dose response curve using Graphpad Prism software to generate IC50 values.

SMILES | IC50 [1] [µM] | IC50 [2] [µM] | IC50 [3] [µM] | IC50 [4] [µM]
CC1CCN(CCc2ccc(NC(=O)c3cn(-c4cccc(-c5ccc(N(C)C)cc5)n4)nc3N)cc2)CC1 | ≤ 5 | 5 to 10 | 5 to 10 | –
CCN(CC)CCOc1ccc(NC(=O)c2cn(-c3ncc4c(n3)-c3ccccc3OC4)nc2N)cc1 | ≤ 5 | – | > 25 | –
CN1CCN(CCc2ccc(NC(=O)c3cn(-c4nccc(-c5ccc(N(C)C)cc5)n4)nc3N)cc2)CC1 | ≤ 5 | 10 to 15 | 5 to 10 | –
COc1ccc2c(c1)CCc1cnc(-n3cc(C(=O)NCCc4c[nH]c5ccccc45)c(N)n3)nc1-2 | ≤ 5 | 5 to 10 | > 25 | –
COc1ccc2c(c1)CCc1cnc(-n3cc(C(=O)NCc4nc5ccccc5[nH]4)c(N)n3)nc1-2 | ≤ 5 | 5 to 10 | 5 to 10 | –
COc1ccc2c(c1)CCc1cnc(-n3cc(C(=O)Nc4ccc(/C=C/CN5CCN(C)CC5)cc4)c(N)n3)nc1-2 | ≤ 5 | 10 to 15 | 5 to 10 | –
COc1ccc2c(c1)CCc1cnc(-n3cc(C(=O)NC4CCN(CCCc5ccncc5)CC4)c(N)n3)nc1-2 | ≤ 5 | 5 to 10 | ≤ 5 | –
CN1CCN(CCc2ccc(NC(=O)c3cn(-c4ncc5c(n4)-c4cc(Cl)ccc4OC5)nc3N)cc2)CC1 | ≤ 5 | 10 to 15 | 5 to 10 | –
COc1ccc2c(c1)CCc1cnc(-n3cc(C(=O)Nc4ccc(CCN5CCC(N)CC5)cc4)c(N)n3)nc1-2 | ≤ 5 | > 25 | – | –
COc1ccc2c(c1)CCc1cnc(-n3cc(C(=O)Nc4ccc(CCN5CCN6CCC[C@H]6C5)cc4)c(N)n3)nc1-2 | ≤ 5 | 10 to 15 | 5 to 10 | –
COc1ccc2c(c1)CCc1cnc(-n3cc(-c4nc5cc(N6CCN(C)CC6)ccc5[nH]4)c(N)n3)nc1-2 | ≤ 5 | 10 to 15 | 5 to 10 | –
CN1CCN(c2ccc3nc(-c4nc5ccccc5[nH]4)[nH]c3c2)CC1 | ≤ 5 | 10 to 15 | 10 to 15 | –
CN1CCN(c2ccc3nc(-c4cc(-c5ccc(N(C)C)cc5)ccc4O)[nH]c3c2)CC1 | ≤ 5 | 10 to 15 | 5 to 10 | –
CN1CCN(c2ccc3nc(-c4cc(-c5ccccc5)ccc4O)[nH]c3c2)CC1 | ≤ 5 | > 25 | 10 to 15 | –
CN1CCN(c2ccc3nc(-c4cc(-c5cccnc5)ccc4O)[nH]c3c2)CC1 | ≤ 5 | 10 to 15 | 10 to 15 | –
CN1CCN(c2ccc3nc(-c4ccc(OCc5ccccc5)cc4O)[nH]c3c2)CC1 | ≤ 5 | 10 to 15 | > 25 | –
CN1CCN(c2ccc3nc(-c4ccc(O)c(O)c4O)[nH]c3c2)CC1 | ≤ 5 | 10 to 15 | 10 to 15 | –
COc1ncccc1-c1ccc(O)c(-c2nc3cc(C(=O)NCCc4c[nH]cn4)c(F)cc3[nH]2)c1 | – | – | – | < 0.02
COc1ncccc1-c1ccc(O)c(-c2nc3cc(C(=O)N[C@@H](Cc4c[nH]cn4)C(N)=O)ccc3[nH]2)c1 | – | – | – | < 0.02
O=C(NCCc1c[nH]cn1)c1cc2nc(-c3cc(-c4cccnc4O)ccc3O)[nH]c2cc1Cl | – | – | – | < 0.02
COc1cc(O)c(-c2nc3ccc(C(=O)NCCc4c[nH]cn4)cc3[nH]2)cc1-c1cccnc1OC | – | – | – | 0.02 to 0.2

More lines, now with the values ahead:

IC50 [1] [µM] | IC50 [2] [µM] | IC50 [3] [µM] | IC50 [4] [µM] | SMILES
≤ 5 | 10 to 15 | – | – | CN1CCN(Cc2ccc(NC(=O)c3ccc4[nH]c(-c5cc(Br)ccc5O)nc4c3)cc2)CC1
≤ 5 | 10 to 15 | 5 to 10 | – | CN1CCN(c2ccc(NC(=O)c3ccc4nc(-c5ccc6ccccc6c5O)[nH]c4c3)cc2)CC1
≤ 5 | > 25 | 5 to 10 | – | CN1CCN(CCc2ccc(NC(=O)c3ccc4nc(-c5nc6ccccc6[nH]5)[nH]c4c3)cc2)CC1
≤ 5 | 5 to 10 | ≤ 5 | – | COc1ncccc1-c1ccc(O)c(-c2nc3ccc(C(=O)Nc4ccc(CCN5CCN(C)CC5)cc4)cc3[nH]2)c1
– | – | – | 0.02 to 0.2 | CN1CCN(CCc2ccc(NC(=O)c3ccc4nc(-c5cc(-c6cccnc6O)ccc5O)[nH]c4c3)cc2)CC1
– | – | – | > 0.2 | COc1ncccc1-c1ccc(O)c(-c2nc3cc(C(=O)NCc4ccc(CN5CCN(C)CC5)cc4)ccc3[nH]2)c1
– | – | – | > 0.2 | COc1ncccc1-c1ccc(O)c(-c2nc3ccc(C(=O)NC4CCCC(N)C4)cc3[nH]2)c1 (stereo not drawn)
– | – | – | > 0.2 | COc1ncccc1-c1ccc(O)c(-c2nc3ccc(C(=O)NCc4ccc5c(c4)CCCN5C)cc3[nH]2)c1
– | – | – | 0.02 to 0.2 | COc1ncccc1-c1ccc(O)c(-c2nc3ccc(C(=O)NCC4CCN(Cc5ccccc5)C4)cc3[nH]2)c1 (stereo not drawn)
– | – | – | 0.02 to 0.2 | COc1ncccc1-c1ccc(O)c(-c2nc3ccc(C(=O)NCCc4c[nH]cn4)cc3[nH]2)c1
– | – | – | 0.02 to 0.2 | COCCN1CCC(CNC(=O)c2ccc3nc(-c4cc(-c5cccnc5OC)ccc4O)[nH]c3c2)C1 (stereo not drawn)
– | – | – | < 0.02 | COc1ncccc1-c1ccc(O)c(-c2nc3ccc(C(=O)NCC4CCN(CCO)CC4)cc3[nH]2)c1
– | – | – | 0.02 to 0.2 | COc1ncccc1-c1ccc(O)c(-c2nc3ccc(C(=O)NCCC4CCCN4C)cc3[nH]2)c1 (stereo not drawn)
– | – | – | < 0.02 | COc1ncccc1-c1ccc(O)c(-c2nc3ccc(C(=O)NCCCN4CCCCC4C)cc3[nH]2)c1 (stereo not drawn)
– | – | – | < 0.02 | CCN(CC)CCCNC(=O)c1ccc2nc(-c3cc(-c4cccnc4OC)ccc3O)[nH]c2c1
– | – | – | > 0.2 | COc1ncccc1-c1ccc(O)c(-c2nc3ccc(C(=O)NCC4CCCC(CN)C4)cc3[nH]2)c1 (stereo not drawn)
– | – | – | > 0.2 | COc1ncccc1-c1ccc(O)c(-c2nc3ccc(C(=O)NCCCN4CCN(C)CC4)cc3[nH]2)c1
– | – | – | > 0.2 | COc1ncccc1-c1ccc(O)c(-c2nc3ccc(C(=O)NCCCCCN(C)C)cc3[nH]2)c1
– | – | – | > 0.2 | COc1ncccc1-c1ccc(O)c(-c2nc3ccc(C(=O)Nc4ccc(OCCCN5CCN(C)CC5)cc4)cc3[nH]2)c1
– | – | – | > 0.2 | COc1ncccc1-c1ccc(O)c(-c2nc3ccc(C(=O)Nc4ccc(OCCN5CCN(C)CC5)cc4)cc3[nH]2)c1
– | – | – | 0.02 to 0.2 | COc1ncccc1-c1ccc(O)c(-c2nc3ccc(C(=O)Nc4ccc(CCN5CCN(c6ccncc6)CC5)cc4)cc3[nH]2)c1
– | – | – | 0.02 to 0.2 | COC(=O)[C@H](Cc1c[nH]cn1)NC(=O)c1ccc2[nH]c(-c3cc(-c4cccnc4OC)ccc3O)nc2c1
– | – | – | < 0.02 | COc1ncccc1-c1ccc(O)c(-c2nc3cc(C(=O)N[C@H](CO)Cc4c[nH]cn4)ccc3[nH]2)c1
– | – | – | < 0.02 | COc1ncccc1-c1ccc(O)c(-c2nc3cc(C(=O)N[C@@H](CO)Cc4c[nH]cn4)ccc3[nH]2)c1
– | – | – | > 0.2 | COc1ncccc1-c1ccc(O)c(-c2nc3cc(C(=O)N[C@@H](C)Cc4c[nH]cn4)ccc3[nH]2)c1
– | – | – | 0.02 to 0.2 | CN1CCN(CCc2ccc(NC(=O)c3cc4nc(-c5cc(-c6cccnc6O)ccc5O)[nH]c4cc3Cl)cc2)CC1
– | – | – | < 0.02 | CCN1CCC2(CCN(CCc3ccc(NC(=O)c4ccc5[nH]c(-c6cc(-c7cccnc7O)ccc6O)nc5c4)cc3)C2)C1 (stereo not drawn) [drawing 1792]
– | – | – | > 0.2 | CN1CCCC2(CCCN(CCc3ccc(NC(=O)c4ccc5nc(-c6cc(-c7cccnc7O)ccc6O)[nH]c5c4)cc3)C2)C1 (stereo not drawn) [drawing 1793]
– | – | – | < 0.02 | COc1ncccc1-c1ccc(O)c(-c2nc3ccc(C(=O)NCCCCN4CCCC4)cc3[nH]2)c1 [drawing 1800]
– | – | – | > 0.2 | COc1ncccc1-c1ccc(O)c(-c2nc3ccc(C(=O)NCCCCN4CCCC4)cc3[nH]2)c1 [drawing 1807]
